The results in this text go back to patent publication US5169844A, “4-substituted piperidinecarboxylic acid esters: inhibition of cholesterol absorption” (priority 1991, dated 1992).

Experiment [1] relates to acyl-coenzyme A: cholesterol acyltransferase (ACAT). Kind of experiment: ACAT inhibition (intracellular cholesterol esterification, procedure of Ross et al.). The format is cell-based. The conditions noted are these: for IC50: read-out: ACAT IC50. From the text: 1. The ability of the compounds of this invention to inhibit acyl-coenzyme A: cholesterol acyltransferase was established by initially showing that they inhibited intracellular cholesterol esterification by subjecting them to the standard experimental test procedure of Ross et al., J. Biol. Chem. 259, 815 (1984).

Experiment [2] deals with Absorption of 14C-cholesterol in normal rat. Kind of experiment: In vivo cholesterol absorption, oral [4-14C] cholesterol, normal rats. The conditions noted are these: read-out: Effect on Absorption of 14C-Chol., % Decrease. How it is done: The in vivo cholesterol absorption studies were conducted in normal rats by oral administration of the compound being tested in propylene glycol and olive oil followed by oral administration of [4-^14 C] cholesterol in propylene glycol and olive oil, otherwise following the procedure of Cayen et al., J. Lipid Res. 20 162 (1979). The serum radioactivity was measured at six hours after dosing. The results of this study are reported in the following table, where available, as percent decrease compared to control and in terms of the effective dose (ED50) inhibiting fifty-percent of the absorption of the control animals.

For experiment [3], the target named is T1, cholesterol esterase (EC 3.1.1.13) from bovine pancreas (CEH) (Bos taurus, UniProt P30122).
T1 construct: purchased Sigma Company, St. Louis, Mo., U.S.A. C-1892; host or cells: bovine pancreas
T1 sequence (P30122 19-597): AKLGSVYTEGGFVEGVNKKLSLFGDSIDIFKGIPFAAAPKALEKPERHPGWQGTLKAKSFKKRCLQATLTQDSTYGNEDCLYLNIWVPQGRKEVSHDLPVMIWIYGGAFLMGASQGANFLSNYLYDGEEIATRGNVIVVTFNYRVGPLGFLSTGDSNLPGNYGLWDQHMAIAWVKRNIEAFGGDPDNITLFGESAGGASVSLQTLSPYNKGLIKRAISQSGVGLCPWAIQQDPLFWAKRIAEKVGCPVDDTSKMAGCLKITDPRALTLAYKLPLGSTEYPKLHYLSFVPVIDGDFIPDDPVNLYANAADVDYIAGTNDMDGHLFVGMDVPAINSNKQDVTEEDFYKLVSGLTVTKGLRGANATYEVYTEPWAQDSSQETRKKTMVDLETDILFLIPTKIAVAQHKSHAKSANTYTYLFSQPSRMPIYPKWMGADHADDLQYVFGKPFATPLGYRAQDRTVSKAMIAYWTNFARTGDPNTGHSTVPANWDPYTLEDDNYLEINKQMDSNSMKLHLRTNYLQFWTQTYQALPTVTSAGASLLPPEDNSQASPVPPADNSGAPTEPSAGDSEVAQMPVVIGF
Put plainly: CEH inhibition (cholesteryl ester formation from cholesterol and oleic acid by buffered cholesterol esterase). The class given is biochemical. On the procedure:
2. The ability of the compounds of this invention to inhibit the formation of cholesteryl esters and thereby interfere with and prevent assimilation of cholesterol into the lymphatic system and ultimately the blood stream was established by incubating the compounds at 37° C. with a mixture of cholesterol and oleic acid in the presence of buffered cholesterol esterase [(EC 3.1.1.13) Sigma Company, St. Louis, Mo., U.S.A., No. C-1892, from bovine pancreas] and measuring the amount of ester formed, according to the procedure of Field, J. of Lipid Research, 25 389 (1984).

Where [4] appears, read: normal rat, oral, 6 hr, 10 mg/kg, serum radioactivity vs control.
[5] abbreviates: 37° C., bovine pancreas enzyme, read-out: CEH IC50.
The mark [6] stands for this setting: normal rat, oral, 6 hr, serum radioactivity vs control.

Like-named read-outs stand apart in the source and are kept apart here.

In the case of `CCCCCCCCCCCCNC(=O)OC1CCN(C(=O)Oc2ccc(Oc3ccccc3)cc2)CC1` [Example 6, 4-[[(Dodecylamino)carbonyl]oxy]-1-piperidinecarboxylic acid 4-phenoxyphenylester], in experiment [1], the “ACAT % inhibition at 25 μM” value stood at 88% and the IC50 (commonly the concentration that inhibits the measured activity by half) was 510 nM. In addition, in experiment [2] (setting [4]), the inhibition in vivo at 10 mg/kg amounted to 57%. In addition, in experiment [3] (setting [5]), the IC50 was 16000 nM.
Taken in the same sequence, the figures for `O=C(NCCCCc1ccccc1)OC1CCN(C(=O)Oc2ccc(Oc3ccccc3)cc2)CC1` [Example 13, 4-[[[(4-Phenylbutyl)amino]carbonyl]oxy]-1-piperidinecarboxylic acid 4-phenoxyphenyl ester] were 96%, 230 nM, 41% and 5000 nM.
For the molecule `O=C(NC1CCCCC1)OC1CCN(C(=O)Oc2ccc(Oc3ccccc3)cc2)CC1` [Example 5, 4-[[(Cyclohexylamino)carbonyl]oxy]-1-piperidinecarboxylic acid 4-phenoxyphenyl ester], in experiment [1], the “ACAT % inhibition at 25 μM” value is on record as 92% and the IC50 came to 1680 nM. Besides, the inhibition in vivo at 10 mg/kg in experiment [2] (setting [4]) came to 89%. Further, in experiment [3] (setting [5]), the IC50 came to 9500 nM.
Turning to `CCCCNC(=O)OC1CCN(C(=O)Oc2ccc(Oc3ccccc3)cc2)CC1` [Example 2, 4-[[(Butylamino)carbonyl]oxy]-1-piperidinecarboxylic acid 4-phenoxyphenyl ester], in experiment [1], the “ACAT % inhibition at 25 μM” value is reported as 96% and the IC50 is 2000 nM. In experiment [3], the IC50 came to 2300 nM.
As for `O=C(Oc1ccc(Oc2ccccc2)cc1)N1CCC(OC(=O)N2CCSCC2)CC1` [Example 15, 4-Thiomorpholinecarboxylic acid 1-[(4-phenxoyphenoxy)carbonyl]-4-piperidinyl ester], the half-maximal inhibitory concentration (IC50) in experiment [3] (setting [5]) came to 79000 nM.
As for `CC1CCN(C(=O)OC2CCN(C(=O)Oc3ccc(Oc4ccccc4)cc3)CC2)CC1` [Example 9], the IC50 in experiment [3] (setting [5]) is 1100 nM.
`CNC(=O)OC1CCN(C(=O)Oc2ccc(Oc3ccccc3)cc2)CC1` [Example 11, 4-[[(Methylamino)carbonyl]oxy]-1-piperidinecarboxylic acid 4-phenoxyphenyl ester] registered a half-maximal inhibitory concentration (IC50) in experiment [3] of 2100 nM.
Turning to `CCCCCCNC(=O)OC1CCN(C(=O)Oc2ccc(Oc3ccc(OC)cc3)cc2)CC1` [Example 19, 4-[[(Hexylamino)carbonyl]oxy]-1-piperidinecarboxylic acid 4-(4-methoxyphenoxy)phenyl ester], the inhibition in vivo at 10 mg/kg in experiment [2] (setting [4]) turned out to be 29%. The IC50 in experiment [3] (setting [5]) came out at 2800 nM.
With `CCCCCCCC/C=C\CCCCCCCCNC(=O)OC1CCN(C(=O)Oc2ccc(Oc3ccccc3)cc2)CC1` [Example 14], the inhibition in vivo at 25 mg/kg in experiment [2] (setting [6]) amounted to 21%. Further, the IC50 in experiment [3] (setting [5]) is 43000 nM.
On to `O=C(Oc1ccc(Oc2ccccc2)cc1)N1CCC(OC(=O)N2CCC(c3ccccc3)CC2)CC1` [Example 16, 4-Phenyl-1-piperidinecarboxylic acid 1-[(4-phenoxyphenoxy)carbonyl]-4-piperidinyl ester], for which, in experiment [1], the “ACAT % inhibition at 25 μM” value amounted to 91% and the IC50 was 510 nM. Further, in experiment [2] (setting [4]), the inhibition in vivo at 10 mg/kg was 48%. Further, the IC50 in experiment [3] (setting [5]) was 12000 nM.
As for `CCCCCCCCCCCCCCCCCCNC(=O)OC1CCN(C(=O)Oc2ccc(Oc3ccccc3)cc2)CC1` [Example 7, 4-[[(Octadecylamino)carbonyl]oxy]-1-piperidinecarboxylic acid 4-phenoxyphenyl ester], the inhibition in vivo at 25 mg/kg in experiment [2] (setting [6]) worked out at 28%. In addition, the half-maximal inhibitory concentration (IC50) in experiment [3] (setting [5]) is more than 100000 nM.
As for `CC(C)CCCC(C)NC(=O)OC1CCN(C(=O)Oc2ccc(Oc3ccccc3)cc2)CC1` (stereo not shown) [Example 8, 4-[[[(1,5-Dimethylhexyl)amino]carbonyl]oxy]-1-piperidinecarboxylic acid 4-phenoxyphenyl ester], the IC50 in experiment [3] (setting [5]) is 13000 nM.
In the case of `CCCCCCNC(=O)OC1CCN(C(=O)Oc2ccc(Oc3ccccc3)cc2)CC1` [Example 3, 4-[[(Hexylamino)carbonyl]oxy]-1-piperidinecarboxylic acid 4-phenoxyphenyl ester], in experiment [1], the “ACAT % inhibition at 25 μM” value was determined as 94%. The concentration for half-maximal inhibition (IC50) is 640 nM in experiment [1] and 9800 nM in experiment [3]. The inhibition in vivo at 10 mg/kg in experiment [2] (Rattus norvegicus, po, 6 h) was 85%.
Turning to `CCCCCCCCNC(=O)OC1CCN(C(=O)Oc2ccc(Oc3ccccc3)cc2)CC1` [Example 4, 4-[[(Octylamino)carbonyl]oxy]-1-piperidinecarboxylic acid 4-phenoxyphenyl ester], the “ACAT % inhibition at 25 μM” value in experiment [1] worked out at 94%. In addition, the IC50 is 820 nM in experiment [1] and more than 100000 nM in experiment [3] (setting [5]). Also, the inhibition in vivo at 100 mg/kg in experiment [2] (normal rat, oral, 6 hr, 100 mg/kg, serum radioactivity vs control) worked out at 92%.
For `CCCCCCNC(=O)OC1CCN(C(=O)Oc2ccc(Oc3ccc(C)cc3)cc2)CC1` [Example 18, 4-[[(Hexylamino)carbonyl]oxy]-1-piperidinecarboxylic acid 4-(4-methylphenoxy)phenyl ester], in experiment [2] (setting [4]), the inhibition in vivo at 10 mg/kg is 25%. For the same molecule, in experiment [3] (setting [5]), the half-inhibitory concentration (IC50) was 2000 nM.
As to `O=C(NCC1CCCCC1)OC1CCN(C(=O)Oc2ccc(Oc3ccccc3)cc2)CC1` [Example 17, 4-[[[(Cyclohexylmethyl)amino]carbonyl]oxy]-1-piperidinecarboxylic acid 4-phenoxyphenyl ester], the “ACAT % inhibition at 25 μM” value in experiment [1] came to 97%. For the same molecule, the IC50 came out at 490 nM in experiment [1] and 19000 nM in experiment [3] (setting [5]). Moreover, the inhibition in vivo at 3 mg/kg in experiment [2] (normal rat, oral, 6 hr, 3 mg/kg, serum radioactivity vs control) came to 68%.
Turning to `CCCCCCCN(Cc1ccc(CC(C)(C)C)cc1)C(=O)OC1CCN(C(=O)Oc2ccc(Oc3ccccc3)cc2)CC1` [Example 10, 4-[[[[[4-(2,2-Dimethylpropyl)phenyl]methyl]heptylamino]carbonyl]oxy]-1-piperidinecarboxylic acid 4-phenoxyphenyl ester], in experiment [1], the “ACAT % inhibition at 25 μM” value came to 84% and the IC50 stood at 3300 nM. Also, the IC50 in experiment [3] (setting [5]) is more than 100000 nM.
`CCN(CC)C(=O)OC1CCN(C(=O)Oc2ccc(Oc3ccccc3)cc2)CC1` [Example 12, 4-[[(Diethylamino)carbonyl]oxy]-1-piperidinecarboxylic acid 4-phenoxyphenylester]: in experiment [1], the “ACAT % inhibition at 25 μM” value is given as 93% and the IC50 came to 1370 nM. The same molecule had an IC50 in experiment [3] of 11400 nM.
